Reference: patent publication US7612211B2, “Benzimidazole TRPV1 inhibitors” (Janssen Pharmaceutica N.V., priority 2006, dated 2009)

Target: T1, hTRPV1 (Homo sapiens, UniProt Q8NER1)
T1 construct: expressed in transfected cells; host or cells: HEK293
Assay: Human TRPV1 (hTRPV1) functional assay, FLIPR intracellular Ca2+, capsaicin challenge
Format: cell-based
Settings: HEK293 cells expressing hTRPV1, capsaicin 0.030 μM challenge; for inhibition at 0.5 µM: test concentration of 0.5 μm, read-out: percent inhibition (symbol a); for IC50: derived from a variety of test concentrations, read-out: IC50 value (symbol c)
In short: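 HEK293 cells expressing the channel, loaded with Calcium 3 dye, were exposed to compounds for 5 min before capsaicin 0.030 μM (~80% maximal). FLIPR Ca2+ read; IC50/EC50 from quadruplicate concentration-response, or percent inhibition at 0.5 μm or 0.2 μm.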

T1 sequence (Q8NER1 whole entry): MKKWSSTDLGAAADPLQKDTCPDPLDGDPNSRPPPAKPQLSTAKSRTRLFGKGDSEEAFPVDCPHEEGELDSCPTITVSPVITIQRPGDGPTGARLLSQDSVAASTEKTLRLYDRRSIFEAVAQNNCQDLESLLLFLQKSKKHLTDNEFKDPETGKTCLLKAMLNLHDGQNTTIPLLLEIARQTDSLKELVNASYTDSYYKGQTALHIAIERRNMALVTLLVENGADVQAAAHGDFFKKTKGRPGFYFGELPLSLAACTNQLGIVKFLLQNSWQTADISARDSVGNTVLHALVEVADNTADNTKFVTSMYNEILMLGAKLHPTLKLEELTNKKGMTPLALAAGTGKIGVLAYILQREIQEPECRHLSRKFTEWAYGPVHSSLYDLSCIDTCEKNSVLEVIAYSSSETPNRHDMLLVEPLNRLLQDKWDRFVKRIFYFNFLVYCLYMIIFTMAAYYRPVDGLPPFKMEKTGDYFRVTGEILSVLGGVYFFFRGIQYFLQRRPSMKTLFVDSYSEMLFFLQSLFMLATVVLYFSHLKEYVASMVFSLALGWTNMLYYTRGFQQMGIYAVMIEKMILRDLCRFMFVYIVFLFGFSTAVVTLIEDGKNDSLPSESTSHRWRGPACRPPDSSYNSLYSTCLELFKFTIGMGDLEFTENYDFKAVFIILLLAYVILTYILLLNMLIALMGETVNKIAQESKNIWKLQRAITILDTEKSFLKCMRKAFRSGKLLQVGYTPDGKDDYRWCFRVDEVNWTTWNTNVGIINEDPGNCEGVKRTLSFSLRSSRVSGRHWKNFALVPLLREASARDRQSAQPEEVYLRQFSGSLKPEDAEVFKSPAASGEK

Row | inhibition at 0.5 µM [%] | IC50 [nM] | inhibition at 0.2 µM (test concentration of 0.2 μm, read-out: percent inhibition (symbol b)) [%] | Structure (SMILES)
1 | 10 |  |  | Cc1cccc(-c2ccc3[nH]c(COc4ccc(C(F)(F)F)cc4)nc3c2)c1 [Cpd 108, 5-m-tolyl-2-(4-trifluoromethyl-phenoxymethyl)-1H-benzoimidazole]
2 | 3 |  |  | Cc1ccc(-c2ccc3[nH]c(COc4ccc(C(F)(F)F)cc4)nc3c2)cc1 [Cpd 109, 5-p-tolyl-2-(4-trifluoromethyl-phenoxymethyl)-1H-benzoimidazole]
3 | 98 | 58 |  | CC(O)c1ccccc1-c1ccc2[nH]c(COc3ccc(C(F)(F)F)cc3)nc2c1 (stereo not drawn) [Cpd 110, 1-{2-[2-(4-trifluoromethyl-phenoxymethyl)-1H-benzoimidazol-5-yl]-phenyl}-ethanol]
4 | 18 |  |  | CC(O)c1cccc(-c2ccc3[nH]c(COc4ccc(C(F)(F)F)cc4)nc3c2)c1 (stereo not drawn) [Cpd 111, 1-{3-[2-(4-trifluoromethyl-phenoxymethyl)-1H-benzoimidazol-5-yl]-phenyl}-ethanol]
5 | 1 |  |  | CC(O)c1ccc(-c2ccc3[nH]c(COc4ccc(C(F)(F)F)cc4)nc3c2)cc1 (stereo not drawn) [Cpd 112, 1-{4-[2-(4-trifluoromethyl-phenoxymethyl)-1H-benzoimidazol-5-yl]-phenyl}-ethanol]
6 | 42 |  |  | CC(=O)Nc1ccccc1-c1ccc2[nH]c(COc3ccc(C(F)(F)F)cc3)nc2c1 [Cpd 113, N-{2-[2-(4-trifluoromethyl-phenoxymethyl)-1H-benzoimidazol-5-yl]-phenyl}-acetamide]
7 | 6 |  |  | CC(=O)Nc1cccc(-c2ccc3[nH]c(COc4ccc(C(F)(F)F)cc4)nc3c2)c1 [Cpd 114, N-{3-[2-(4-trifluoromethyl-phenoxymethyl)-1H-benzoimidazol-5-yl]-phenyl}-acetamide]
8 | 14 |  |  | CC(=O)Nc1ccc(-c2ccc3[nH]c(COc4ccc(C(F)(F)F)cc4)nc3c2)cc1 [Cpd 115, N-{4-[2-(4-trifluoromethyl-phenoxymethyl)-1H-benzoimidazol-5-yl]-phenyl}-acetamide]
9 | 99 | 8.1 |  | OCc1ccccc1-c1ccc2[nH]c(COc3ccc(C(F)(F)F)cc3)nc2c1 [Cpd 116, {2-[2-(4-trifluoromethyl-phenoxymethyl)-1H-benzoimidazol-5-yl]-phenyl}-methanol]
10 | 13 |  |  | OCc1cccc(-c2ccc3[nH]c(COc4ccc(C(F)(F)F)cc4)nc3c2)c1 [Cpd 117, {3-[2-(4-trifluoromethyl-phenoxymethyl)-1H-benzoimidazol-5-yl]-phenyl}-methanol]
11 | 2 |  |  | OCc1ccc(-c2ccc3[nH]c(COc4ccc(C(F)(F)F)cc4)nc3c2)cc1 [Cpd 118, {4-[2-(4-trifluoromethyl-phenoxymethyl)-1H-benzoimidazol-5-yl]-phenyl}-methanol]
12 | 14 |  |  | Oc1ccccc1-c1ccc2[nH]c(COc3ccc(C(F)(F)F)cc3)nc2c1 [Cpd 119, 2-[2-(4-trifluoromethyl-phenoxymethyl)-1H-benzoimidazol-5-yl]-phenol]
13 | 15 |  |  | Oc1cccc(-c2ccc3[nH]c(COc4ccc(C(F)(F)F)cc4)nc3c2)c1 [Cpd 120, 3-[2-(4-trifluoromethyl-phenoxymethyl)-1H-benzoimidazol-5-yl]-phenol]
14 | 9 |  |  | Oc1ccc(-c2ccc3[nH]c(COc4ccc(C(F)(F)F)cc4)nc3c2)cc1 [Cpd 121, 4-[2-(4-trifluoromethyl-phenoxymethyl)-1H-benzoimidazol-5-yl]-phenol]
15 | 21 |  |  | Nc1ccccc1-c1ccc2[nH]c(COc3ccc(C(F)(F)F)cc3)nc2c1 [Cpd 122, 2-[2-(4-trifluoromethyl-phenoxymethyl)-1H-benzoimidazol-5-yl]-phenylamine]
16 | 7 |  |  | Nc1cccc(-c2ccc3[nH]c(COc4ccc(C(F)(F)F)cc4)nc3c2)c1 [Cpd 123, 3-[2-(4-trifluoromethyl-phenoxymethyl)-1H-benzoimidazol-5-yl]-phenylamine]
17 | 12 |  |  | Nc1ccc(-c2ccc3[nH]c(COc4ccc(C(F)(F)F)cc4)nc3c2)cc1 [Cpd 124, 4-[2-(4-trifluoromethyl-phenoxymethyl)-1H-benzoimidazol-5-yl]-phenylamine]
18 | 11 |  |  | CNS(=O)(=O)c1ccc(-c2ccc3[nH]c(COc4ccc(C(F)(F)F)cc4)nc3c2)cc1 [Cpd 125, N-methyl-4-[2-(4-trifluoromethyl-phenoxymethyl)-1H-benzoimidazol-5-yl]-benzenesulfonamide]

Row | inhibition at 0.5 µM [%] | IC50 [nM] | inhibition at 0.2 µM (test concentration of 0.2 μm, read-out: percent inhibition (symbol b)) [%] | Structure (SMILES)
19 | 4 |  |  | FC(F)(F)c1ccc(OCc2nc3cc(-c4ccccc4)ccc3[nH]2)cc1 [Cpd 126, 5-phenyl-2-(4-trifluoromethyl-phenoxymethyl)-1H-benzoimidazole]
20 | 85 | 24.3 |  | COC(=O)c1ccccc1-c1ccc2[nH]c(COc3ccc(C(F)(F)F)cc3)nc2c1 [Cpd 127, 2-[2-(4-trifluoromethyl-phenoxymethyl)-1H-benzoimidazol-5-yl]-benzoic acid methyl ester]
21 | 13 |  |  | CN(C)S(=O)(=O)c1cccc(-c2ccc3[nH]c(COc4ccc(C(F)(F)F)cc4)nc3c2)c1 [Cpd 128, N,N-dimethyl-3-[2-(4-trifluoromethyl-phenoxymethyl)-1H-benzoimidazol-5-yl]-benzenesulfonamide]
22 | 8 |  |  | CN(C)S(=O)(=O)c1ccc(-c2ccc3[nH]c(COc4ccc(C(F)(F)F)cc4)nc3c2)cc1 [Cpd 129, N,N-dimethyl-4-[2-(4-trifluoromethyl-phenoxymethyl)-1H-benzoimidazol-5-yl]-benzenesulfonamide]
23 | 11 |  |  | COC(=O)c1cccc(-c2ccc3[nH]c(COc4ccc(C(F)(F)F)cc4)nc3c2)c1 [Cpd 130, 3-[2-(4-trifluoromethyl-phenoxymethyl)-1H-benzoimidazol-5-yl]-benzoic acid methyl ester]
24 | 5 |  |  | COC(=O)c1ccc(-c2ccc3[nH]c(COc4ccc(C(F)(F)F)cc4)nc3c2)cc1 [Cpd 131, 4-[2-(4-trifluoromethyl-phenoxymethyl)-1H-benzoimidazol-5-yl]-benzoic acid methyl ester]
25 | 100 | 85 |  | NS(=O)(=O)c1ccc(C(F)(F)F)cc1-c1ccc2[nH]c(COc3ccc(C(F)(F)F)cc3)nc2c1 [Cpd 132, 4-trifluoromethyl-2-[2-(4-trifluoromethyl-phenoxymethyl)-1H-benzoimidazol-5-yl]-benzenesulfonamide]
26 | 92 | 105 |  | NS(=O)(=O)c1cc(C(F)(F)F)ccc1-c1ccc2[nH]c(COc3ccc(C(F)(F)F)cc3)nc2c1 [Cpd 133, 5-trifluoromethyl-2-[2-(4-trifluoromethyl-phenoxymethyl)-1H-benzoimidazol-5-yl]-benzenesulfonamide]
27 | 98 | 16 |  | NS(=O)(=O)c1ccc(F)cc1-c1ccc2[nH]c(COc3ccc(C(F)(F)F)cc3)nc2c1 [Cpd 134, 4-fluoro-2-[2-(4-trifluoromethyl-phenoxymethyl)-1H-benzoimidazol-5-yl]-benzenesulfonamide]
28 | 100 | 47 |  | NS(=O)(=O)c1c(F)cc(F)cc1-c1ccc2[nH]c(COc3ccc(C(F)(F)F)cc3)nc2c1 [Cpd 135, 2,4-difluoro-6-[2-(4-trifluoromethyl-phenoxymethyl)-1H-benzoimidazol-5-yl]-benzenesulfonamide]
29 | 99 | 68 |  | NS(=O)(=O)c1ccccc1-c1ccc2[nH]c(NCc3ccc(C(F)(F)F)cc3)nc2c1 [Cpd 136, 2-[2-(4-trifluoromethyl-benzylamino)-1H-benzoimidazol-5-yl]-benzenesulfonamide]
30 | 37 |  |  | CN(Cc1ccc(C(F)(F)F)cc1)c1nc2cc(-c3ccccc3S(N)(=O)=O)ccc2[nH]1 [Cpd 137, 2-{2-[methyl-(4-trifluoromethyl-benzyl)-amino]-1H-benzoimidazol-5-yl}-benzenesulfonamide]
31 | 18 |  |  | NS(=O)(=O)c1ccccc1-c1ccc2[nH]c(OCc3ccc(C(F)(F)F)cc3)nc2c1 [Cpd 138, 2-[2-(4-trifluoromethyl-benzyloxy)-1H-benzoimidazol-5-yl]-benzenesulfonamide]
32 | 99 | 21 |  | NS(=O)(=O)c1ccccc1-c1ccc2[nH]c(C(F)(F)Oc3ccc(C(F)(F)F)cc3)nc2c1 [Cpd 139, 2-{2-[difluoro-(4-trifluoromethyl-phenoxy)-methyl]-1H-benzoimidazol-5-yl}-benzenesulfonamide]
33 | 101 | 17 |  | CNS(=O)(=O)c1ccccc1-c1ccc2[nH]c(C(F)(F)Oc3ccc(C(F)(F)F)cc3)nc2c1 [Cpd 140, 2-{2-[difluoro-(4-trifluoromethyl-phenoxy)-methyl]-1H-benzoimidazol-5-yl}-N-methyl-benzenesulfonamide]
34 | 99 | 83 |  | CN(C)S(=O)(=O)c1ccccc1-c1ccc2[nH]c(C(F)(F)Oc3ccc(C(F)(F)F)cc3)nc2c1 [Cpd 141, 2-{2-[difluoro-(4-trifluoromethyl-phenoxy)-methyl]-1H-benzoimidazol-5-yl}-N,N-dimethyl-benzenesulfonamide]
35 |  | 8 | 97 | O=S(=O)(CCO)c1ccccc1-c1ccc2[nH]c(COc3ccc(C(F)(F)F)cc3)nc2c1 [Cpd 142, 2-{2-[2-(4-trifluoromethyl-phenoxymethyl)-1H-benzoimidazol-5-yl]-benzenesulfonyl}-ethanol]
36 |  | 13 |  | CC(O)c1ccccc1-c1ccc2[nH]c(COc3ccc(C(F)(F)F)cc3)nc2c1 (stereo not drawn) [Cpd 143, 1-{2-[2-(4-trifluoromethyl-phenoxymethyl)-1H-benzoimidazol-5-yl]-phenyl}-ethanol]
